Experimental findings from patent US7291738B2 (dated 2007) are described below.

For orientation: melting point means the temperature, or range, at which the solid turns liquid.

The structures appear in SMILES notation.

On to `Cc1ncccc1Oc1ccc(NC(=O)Nc2ccc3[nH]c4c(c3c2)CCNCC4)cn1`, for which the melting point was 205 to 207 °C.

Regarding `Cc1ncccc1Oc1ccc(NC(=O)N2CCc3c(n(C)c4ccccc34)CC2)cn1`, the melting point fell in the range of 159 to 160 °C.

As to `Cc1ncccc1Oc1ccc(NC(=O)NCCc2ccccc2)cn1`, the melting point was 136 to 138 °C.

With `Cc1ncccc1Oc1ccc(NC(=O)Nc2ccc3[nH]c4c(c3c2)CCN(C(=O)OC(C)(C)C)CC4)cn1`, the melting point lay within 173 to 175 °C.
